Results published in paper PMC7237442, “Drosophila taste neurons as an agonist-screening platform for P2X receptors” (Scientific Reports, 2020).
Numbering of substitutions follows the chain as printed.

How the values were obtained:
[1] = biological target: T1, rat P2X2 (Rattus norvegicus, UniProt P49653); test: action potential recording from Drosophila taste neurons; confirmed by whole-cell voltage clamp in HEK […] cells at […]
T1 construct: gene P2rx2; rat P2X2 with C-terminal mCherry fusion
T1 sequence (P49653 1-472): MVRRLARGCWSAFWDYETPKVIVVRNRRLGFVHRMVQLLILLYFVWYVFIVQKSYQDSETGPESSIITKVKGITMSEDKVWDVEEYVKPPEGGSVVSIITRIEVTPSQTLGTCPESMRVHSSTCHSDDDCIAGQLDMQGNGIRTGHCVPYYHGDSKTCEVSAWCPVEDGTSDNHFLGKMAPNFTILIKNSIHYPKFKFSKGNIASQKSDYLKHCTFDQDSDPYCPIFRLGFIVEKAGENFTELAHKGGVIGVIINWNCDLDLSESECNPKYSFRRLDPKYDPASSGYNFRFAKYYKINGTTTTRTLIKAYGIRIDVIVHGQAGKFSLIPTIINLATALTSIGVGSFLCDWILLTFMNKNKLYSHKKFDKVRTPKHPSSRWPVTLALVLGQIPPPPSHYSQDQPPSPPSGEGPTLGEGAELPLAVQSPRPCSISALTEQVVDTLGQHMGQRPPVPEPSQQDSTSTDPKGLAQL

[2] = biological target: T2, rat P2X2 (Rattus norvegicus, UniProt P49653, T184I); test: action potential recording from Drosophila taste neurons, tested at […]; format: cell-based
T2 construct: gene P2rx2; T184I rP2X2::GFP
T2 sequence (P49653 1-472 T184I): T1 sequence (P49653 1-472) with T184I

[3] = biological target: T1, rat P2X2; test: action potential recording from Drosophila taste neurons, tested at […]; partial agonist; format: cell-based
[4] = biological target: T2, rat P2X2; test: action potential recording from Drosophila taste neurons expressing the mutant
[5] = biological target: T3, human P2X2 (Homo sapiens, UniProt Q9UBL9); test: action potential recording from Drosophila taste neurons, […] ATP; format: cell-based
T3 construct: gene P2RX2; human P2X2 variant A with C-terminal mCherry fusion tag
T3 sequence (Q9UBL9 1-471): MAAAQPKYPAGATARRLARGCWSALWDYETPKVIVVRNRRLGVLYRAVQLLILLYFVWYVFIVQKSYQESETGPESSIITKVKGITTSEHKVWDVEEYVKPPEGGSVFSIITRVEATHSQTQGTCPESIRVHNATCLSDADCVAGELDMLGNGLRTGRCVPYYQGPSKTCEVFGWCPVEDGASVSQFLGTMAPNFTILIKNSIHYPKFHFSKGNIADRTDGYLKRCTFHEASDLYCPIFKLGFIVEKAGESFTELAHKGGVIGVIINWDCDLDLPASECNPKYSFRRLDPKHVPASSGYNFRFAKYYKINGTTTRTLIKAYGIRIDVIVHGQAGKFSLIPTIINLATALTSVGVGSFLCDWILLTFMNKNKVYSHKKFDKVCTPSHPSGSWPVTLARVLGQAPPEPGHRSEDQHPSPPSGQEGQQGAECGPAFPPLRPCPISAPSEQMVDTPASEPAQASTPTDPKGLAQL

[6] = biological target: T1, rat P2X2; test: action potential recording from Drosophila taste neurons expressing the receptor; also whole-cell voltage clamp in HEK […] cells
[7] = biological target: T1, rat P2X2; test: action potential recording from Drosophila taste neurons, tested at […]; format: cell-based

How did the EC50 [1] turn out when `Nc1nc(F)nc2c1ncn2[C@@H]1O[C@H](COP(=O)(O)OP(=O)(O)OP(=O)(O)O)[C@@H](O)[C@H]1O` [2F-ATP] was run?
The EC50 was 17.2 µM.

And the “action potential recording from Drosophila taste neurons, tested at 100 μM” value [2]?
Its value is “flies expressing rat P2X2^T184I and found that ATPγS, ATPαS and 2F-ATP elicited responses similar to ATP”.

`Nc1nc(O)nc2c1ncn2[C@@H]1O[C@H](COP(=O)(O)OP(=O)(O)OP(=O)(O)O)[C@@H](O)[C@H]1O` [2OH-ATP] was tested. Which “action potential recording from Drosophila taste neurons, tested at 100 μM; part” value [3] did it give?
The value was “several modifications at this position show full (2F-ATP) or partial (2-hydroxy-ATP) agonist activity”.

How did the EC50 [4] turn out when `Nc1ncnc2c1ncn2[C@@H]1O[C@H](COP(=O)(O)OP(=O)(O)OP(=O)(O)O)[C@@H](O)[C@H]1O` [ATP] was run?
Its EC50 is 145 µM.

And the “action potential recording from Drosophila taste neurons, 10 μM ATP” value [5]?
Its value is “The human P2X2 ortholog was also tested in Drosophila taste neurons ... and it responded to ATP in a similar fashion”.

And the EC50 [6]?
The EC50 was 8.7 µM.

How did the “action potential recording from Drosophila taste neurons, tested at 100 μM” value [7] turn out when `Nc1ncnc2c1ncn2[C@@H]1O[C@H](COP(O)(=S)OP(=O)(O)OP(=O)(O)O)[C@@H](O)[C@H]1O` (stereo partly drawn) [ATPαS] was run?
Its value is “Several adenosine nucleotides gave responses as large as ATP, including the previously identified agonists ATPγS and ATPαS”.

`Nc1ncnc2c1ncn2[C@@H]1O[C@H](CO[P@](=O)(O)O[P@](=O)(O)O[P@@](=O)(O)S)[C@@H](O)[C@H]1O` [ATPγS] was tested. Which “action potential recording from Drosophila taste neurons, tested at 100 μM” value [7] did it give?
The value was “ATPγS and ATPαS have previously been shown to act as agonists ... both were also effective agonists in the Drosophila system”.

And the “action potential recording from Drosophila taste neurons, tested at 100 μM” value [2]?
The value was “flies expressing rat P2X2^T184I and found that ATPγS, ATPαS and 2F-ATP elicited responses similar to ATP”.
